The values that follow come from patent publication US9593157B2, “Chimeric polypeptides comprising G protein-coupled receptors and VHH antibodies” (VIB VZW, priority 2013, dated 2017).

Holding throughout (type): binding
One assay addresses T1, hMor1-34GS-Nb33 (Homo sapiens, UniProt P35372).
T1 construct: HA signal peptide (N); made in house; host or cells: Sf9 insect cells (baculovirus), membranes
Description: biochemical.

A further assay concerns the target T2, hMor1-34GS-Nb10 (Homo sapiens, UniProt P35372).
T2 construct: HA signal peptide (N); made in house; host or cells: Sf9 insect cells (baculovirus), membranes
Description: biochemical.

For the next assay, the target named is T3, M2Δi3R-Nb9-8 (Homo sapiens, UniProt P08172, A373T/DEL233-372/K374R/N2D/N3D/N6D/N9D).
T3 construct: linker […]; His6 (C); made in house
T3 sequence (P08172 with tags, fused parts or gaps N2D/N3D/N6D/N9D/DEL233-372/A373T/K374R): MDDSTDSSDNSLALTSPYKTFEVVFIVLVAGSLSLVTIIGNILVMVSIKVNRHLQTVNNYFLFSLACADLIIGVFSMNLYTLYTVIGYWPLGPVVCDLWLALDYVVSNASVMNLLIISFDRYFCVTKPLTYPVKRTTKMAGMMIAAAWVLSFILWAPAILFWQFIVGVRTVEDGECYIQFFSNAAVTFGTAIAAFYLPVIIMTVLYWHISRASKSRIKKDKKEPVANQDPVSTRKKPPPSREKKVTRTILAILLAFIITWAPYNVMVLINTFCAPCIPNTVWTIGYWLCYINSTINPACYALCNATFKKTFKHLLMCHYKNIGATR
Description: Radioligand competition on M2Δi3R-Nb9-8 fusion (data not shown).

The next assay deals with T4, M2Δi3R (Homo sapiens, UniProt P08172, A373T/DEL233-372/K374R/N2D/N3D/N6D/N9D).
T4 construct: made in house; host or cells: Sf9 insect cells (baculovirus), membranes
T4 sequence (P08172 with tags, fused parts or gaps N2D/N3D/N6D/N9D/DEL233-372/A373T/K374R): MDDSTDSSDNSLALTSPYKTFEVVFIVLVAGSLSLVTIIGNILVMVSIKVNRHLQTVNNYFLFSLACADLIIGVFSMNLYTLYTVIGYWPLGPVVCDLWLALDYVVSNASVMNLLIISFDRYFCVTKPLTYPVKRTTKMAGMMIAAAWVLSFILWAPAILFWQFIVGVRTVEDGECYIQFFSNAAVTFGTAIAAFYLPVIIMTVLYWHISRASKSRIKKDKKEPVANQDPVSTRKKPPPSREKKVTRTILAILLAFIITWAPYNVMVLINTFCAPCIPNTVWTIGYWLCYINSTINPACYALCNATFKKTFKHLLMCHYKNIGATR
Put plainly: Comparative radioligand competition assay ([3H]-N methyl scopolamine) on Sf9 membranes expressing non-fused M2Δi3R. The following applies: [3H]-NMS 0.5 nM. The protocol:
(§1) Radioligand competition binding experiments were performed on Sf9 insect cell membranes expressing either M2Δi3R (no Single-domain antibody fused) or M2Δi3R-Nb9-1. […] After filtration, membranes retained on the filter plates were washed with ice-cold wash buffer (20 mM Tris-HCl pH7.4), and filters were dried for 1 hour at 50° C.

A further assay addresses T5, M2Δi3R-Nb9-1 (Homo sapiens, UniProt P08172, A373T/DEL233-372/K374R/N2D/N3D/N6D/N9D).
T5 construct: linker […]; made in house; host or cells: Sf9 insect cells (baculovirus), membranes
T5 sequence (P08172 with tags, fused parts or gaps N2D/N3D/N6D/N9D/DEL233-372/A373T/K374R): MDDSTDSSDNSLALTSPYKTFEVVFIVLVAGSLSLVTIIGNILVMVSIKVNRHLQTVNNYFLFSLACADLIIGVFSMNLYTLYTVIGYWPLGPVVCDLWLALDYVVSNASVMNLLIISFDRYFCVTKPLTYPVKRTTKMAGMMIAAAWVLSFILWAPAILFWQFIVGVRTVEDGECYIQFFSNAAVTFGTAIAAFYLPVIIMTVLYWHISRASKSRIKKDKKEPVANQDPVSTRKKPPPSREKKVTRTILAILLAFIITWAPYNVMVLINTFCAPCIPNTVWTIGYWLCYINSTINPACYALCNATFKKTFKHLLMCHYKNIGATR
Description: Comparative radioligand competition assay ([3H]-N methyl scopolamine) on Sf9 membranes expressing M2Δi3R-Nb9-1. The protocol: as §1

The target in a further assay is β2AR (Homo sapiens, UniProt P07550). Put plainly: Affinity of Single-domain antibody for β2AR.
Another assay deals with Mor1 (Homo sapiens, UniProt P35372). Put plainly: Affinity of Single-domain antibody for Mor1.
Assay [1] concerns the target T6, non-fused β2AR365N in presence of exogenously added Nb80 (Homo sapiens, UniProt P07550, E27Q/G16R/N187E).
T6 construct: made in house; host or cells: Sf9 insect cells (baculovirus), membranes; purified Nb80 added
Description: Radioligand competition assay on non-fused β2AR365N in complex with exogenously added Nb80. Particulars: epinephrine bound active state; 5 μM Nb80 in 250 μl. The protocol: To compare the efficiency of fused versus non-fused Nb80 to stabilize the active state of β2AR, the pharmacological properties of the β2AR365N-Nb80 fusion was compared to the non-fused β2AR365N in complex with exogenously added Nb80. […] The β2AR365N-Nb69 fusion and β2AR365N in complex with exogenously added Nb69 were assayed in parallel as controls.
Radioligand competition binding experiments were performed on Sf9 insect cell membranes (5 μg total protein) expressing either β2AR365N (no Single-domain antibody fused), β2AR365N-Nb80 or β2AR365N-Nb69. […] Data represent the mean±SEM of each data point performed in triplicate.

Description for M2Δi3R-Nb9-8: We compared the pharmacological properties of the M2Δi3R-Nb9-1 fusion with the properties of M2Δi3R (FIG. 10).

With `Cc1cc(O)cc(C)c1C[C@H](N)C(=O)N[C@H](CCCNC(=N)N)C(=O)N[C@H]1Cc2ccccc2CN(CCC(N)=O)C1=O` [KGOP01], on hMor1-34GS-Nb33, it took 0.0038 µM to reach half-maximal inhibition (IC50) and the “IC50Nb33/IC50Nb10 (fold preference)” value is given as 20. This molecule also returned an IC50 against hMor1-34GS-Nb10 of 0.0767 µM. As to `C[N+](C)(C)CCOC(N)=O` [carbachol], on M2Δi3R-Nb9-8, the “affinity of M2Δi3R-Nb9-8 fusion compared to non-fused M2Δi3R” value is on record as “higher affinity”. As to `C[N+](C)(C)CC#CCN1CCCC1=O` [oxotremorine M], the IC50 on M2Δi3R came out at 98.4 µM; at M2Δi3R-Nb9-1 ([3H]-NMS 0.5 nM, Sf9 membranes, IC50high), 0.31 µM. Also, the “IC50 ratio IC50m2Δi3R/IC50highM2Δi3R-Nb9-1” value on M2Δi3R-Nb9-1 is 316.

B1: Nb69: mock Single-domain antibody specific for Muscarinic3 receptor, SEQ ID NO:15 (protein)
VHH: QVQLQESGGGLVQAGGSLRLSCTASGLTLSNYAMGWFRQAPGKEREFVAADTWNGNTYHQDSVKGRFTISRDNAKNTVYLQMNYLKPEDTAVYYCAARGSRRSAYYSSSDYTYRGQGTQVTVSS
modifications: Nb69
On to B1, for which, in the assay with β2AR, the “affinity for β2AR” value was “no detectable affinity”.

B2: Nb10: Single-domain antibody specific for a chemokine GPCR, SEQ ID NO:20 (protein)
VHH: QVQLQESGGGLVQPGGSLRLSCAASGSFRSIVSMAWYRQAPGKQRELVASSNSGGSTNYADSVKGRFTISRDNAKNTVYLQMNSLKPEDTAVYWCNVQNRLPGFDAFSGRSIAETYWGQGTQVTVSS
modifications: Nb10
As to B2, the “affinity for Mor1” value in the assay with Mor1 is listed as “no detectable affinity”.

B3: Nb80: β2AR specific Single-domain antibody stabilizing the active state, SEQ ID NO:13 (protein)
VHH: QVQLQESGGGLVQAGGSLRLSCAASGSIFSINTMGWYRQAPGKQRELVAAIHSGGSTNYANSVKGRFTISRDNAANTVYLQMNSLKPEDTAVYYCNVKDYGAVLYEYDYWGQGTQVTVSS
modifications: Nb80
As for B3, in assay [1], the “molar excess of exogenously added Nb80 over β2AR required to constrain the receptor with same efficiency as the fusion” value is listed as 12500 fold.
